According to patent publication US9359308B2, “Pyrazine kinase inhibitors” (Portola Pharmaceuticals, Inc., priority 2011, dated 2016):

Target: T1, full length active recombinant SYK enzyme (Homo sapiens, UniProt P43405)
T1 construct: full length active recombinant SYK enzyme (Millipore, Calif.); purchased Millipore
Test: Inhibition of Syk tyrosine phosphorylation activity (LANCE TR-FRET kinase assay)
Format: biochemical
Settings: activity in the Syk assays, class symbols
Procedure, shortened: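 1 nM full-length active recombinant SYK phosphorylated 550 nM biotin-DEEDYESP-OH with 100 μM ATP in 50 mM Tris pH 7.5, 5 mM MgCl2, 1 mM DTT and 3% DMSO for 1 h at room temperature. After EDTA quench, Eu-anti-phosphotyrosine/SA-APC TR-FRET was read after 1 h. IC50s came from non-linear regression.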

Q: NC(=O)c1ncc(N[C@H](Cc2cccs2)C(N)=O)nc1Nc1cnc2cccnc2c1 [Example 409, (R)-3-(1,5-naphthyridin-3-ylamino)-5-(1-amino-1-oxo-3-(thiophen-2-yl)propan-2-ylamino)pyrazine-2-carboxamide] was tested. Which IC50 did it give?
A: 1 to 10 nM

Q: How did the IC50 turn out when Cc1cc(Nc2nc(N[C@H](CC(C)C)C(N)=O)cnc2C(N)=O)ccn1 [Example 84, (R)-5-(1-amino-4-methyl-1-oxopentan-2-ylamino)-3-(2-methylpyridin-4-ylamino)pyrazine-2-carboxamide] was run?
A: 1 to 10 nM

Q: With NC(=O)c1ncc(N[C@@H]2CCCC(F)(F)[C@@H]2N)nc1Nc1ccc2c(c1)CCC(=O)N2 [Example 25, 5-((1R,2R)-2-amino-3,3-difluorocyclohexylamino)-3-(2-oxo-1,2,3,4-tetrahydroquinolin-6-ylamino)pyrazine-2-carboxamide] as the molecule, how does the IC50 read?
A: 1 to 10 nM

Q: With CC(C)C[C@@H](Nc1cnc(C(N)=O)c(Nc2cnc3ccccc3c2)n1)C(N)=O [Example 1, (R)-5-(1-amino-4-methyl-1-oxopentan-2-ylamino)-3-(quinolin-3-ylamino)pyrazine-2-carboxamide] as the molecule, how does the IC50 read?
A: 1 to 10 nM

Q: With CCc1c(C)nsc1Nc1nc(N[C@@H]2CCCC[C@@H]2N)cnc1C(N)=O [Example 130, 5-(((1R,2S)-2-aminocyclohexyl)amino)-3-((4-ethyl-3-methylisothiazol-5-yl)amino)pyrazine-2-carboxamide] as the molecule, how does the IC50 read?
A: 1 to 10 nM

Q: How did the IC50 turn out when COc1cncc(Nc2nc(N[C@@H]3CCCC[C@@H]3N)cnc2C(N)=O)c1 [Example 309, 5-((1R,2S)-2-aminocyclohexylamino)-3-(5-methoxypyridin-3-ylamino)pyrazine-2-carboxamide] was run?
A: 1 to 10 nM

Q: For NC(=O)c1ncc(N[C@@H]2CCCC[C@@H]2N)nc1Nc1cc(-n2cccn2)cc(-n2cccn2)c1 [Example 44, 5-((1R,2S)-2-aminocyclohexylamino)-3-(3,5-di(1H-pyrazol-1-yl)phenylamino)pyrazine-2-carboxamide], which IC50 is on record?
A: 1 to 10 nM

Q: For NC(=O)c1ncc(N[C@@H]2CCCC(F)(F)[C@@H]2N)nc1Nc1cccc(-c2ncccn2)c1 [Example 16, 5-((1R,2R)-2-amino-3,3-difluorocyclohexylamino)-3-(3-(pyrimidin-2-yl)phenylamino)pyrazine-2-carboxamide], which IC50 is on record?
A: 100 to 1000 nM

Q: Which IC50 does the source give for NC(=O)c1ncc(N[C@@H]2CCCC[C@@H]2N)nc1Nc1cncs1 [Example 449, 5-(((1R,2S)-2-aminocyclohexyl)amino)-3-(thiazol-5-ylamino)pyrazine-2-carboxamide] here?
A: > 1000 nM

Q: COC[C@@H](Nc1cnc(C(N)=O)c(Nc2ccc3ncccc3c2)n1)C(N)=O [Example 360, (R)-5-(1-amino-3-methoxy-1-oxopropan-2-ylamino)-3-(quinolin-6-ylamino)pyrazine-2-carboxamide] was tested. Which IC50 did it give?
A: 10 to 100 nM

Q: For NC(=O)c1ncc(N[C@@H]2CCCC[C@@H]2N)nc1Nc1cnc2ccc(F)cc2c1 [Example 198, 5-((1R,2S)-2-aminocyclohexylamino)-3-(6-fluoroquinolin-3-ylamino)pyrazine-2-carboxamide], which IC50 is on record?
A: 1 to 10 nM

Q: For CC(=O)N(C)c1ccc(Nc2nc(N[C@@H](C(N)=O)C(C)C)cnc2C(N)=O)cc1 [Example 157, (R)-5-(1-amino-3-methyl-1-oxobutan-2-ylamino)-3-(4-(N-methylacetamido)phenylamino)pyrazine-2-carboxamide], which IC50 is on record?
A: 100 to 1000 nM

Q: NC(=O)c1ncc(N[C@@H]2CCCC[C@@H]2N)nc1Nc1cc(CN2CCOCC2)ns1 [Example 255, 5-((1R,2S)-2-aminocyclohexylamino)-3-(3-(morpholinomethyl)isothiazol-5-ylamino)pyrazine-2-carboxamide] was tested. Which IC50 did it give?
A: 10 to 100 nM

Q: Which IC50 does the source give for CC(C)C[C@@H](Nc1cnc(C(N)=O)c(Nc2ccc(C(=O)N3CC(C#N)C3)nc2)n1)C(N)=O [Example 321, (R)-5-(1-amino-4-methyl-1-oxopentan-2-ylamino)-3-(6-(3-cyanoazetidine-1-carbonyl)pyridin-3-ylamino)pyrazine-2-carboxamide] here?
A: 1 to 10 nM

Q: How did the IC50 turn out when CC(C)[C@@H](Nc1cnc(C(N)=O)c(Nc2cccc(CN3CCOCC3)c2)n1)C(N)=O [Example 144, (R)-5-(1-amino-3-methyl-1-oxobutan-2-ylamino)-3-(3-(morpholinomethyl)phenylamino)pyrazine-2-carboxamide] was run?
A: 100 to 1000 nM

Q: NC(=O)c1ncc(N[C@@H]2CCCC[C@@H]2N)nc1Nc1ccc(N2CCOCC2=O)c(F)c1 [Example 443, 5-(((1R,2S)-2-aminocyclohexyl)amino)-3-((3-fluoro-4-(3-oxomorpholino)phenyl)amino)pyrazine-2-carboxamide] was tested. Which IC50 did it give?
A: 10 to 100 nM

Q: For NC(=O)c1ncc(N[C@@H]2CCCC[C@@H]2N)nc1Nc1cc(C2CC2)no1 [Example 231, 5-((1R,2S)-2-aminocyclohexylamino)-3-(3-cyclopropylisoxazol-5-ylamino)pyrazine-2-carboxamide], which IC50 is on record?
A: 10 to 100 nM

Q: With COc1cc(Nc2nc(N[C@H](CC(C)(C)C)C(N)=O)cnc2C(N)=O)ccn1 [Example 256, (R)-5-(1-amino-4,4-dimethyl-1-oxopentan-2-ylamino)-3-(2-methoxypyridin-4-ylamino)pyrazine-2-carboxamide] as the molecule, how does the IC50 read?
A: 1 to 10 nM

Q: For NC(=O)c1ncc(N[C@@H]2CCCC[C@@H]2N)nc1Nc1snc2ccccc12 [Example 270, 5-((1R,2S)-2-aminocyclohexylamino)-3-(benzo[c]isothiazol-3-ylamino)pyrazine-2-carboxamide], which IC50 is on record?
A: < 1 nM

Q: CC[C@@H](Nc1cnc(C(N)=O)c(Nc2cnc(OC)c(C)c2)n1)C(N)=O [Example 311, (R)-5-(1-amino-1-oxobutan-2-ylamino)-3-(6-methoxy-5-methylpyridin-3-ylamino)pyrazine-2-carboxamide] was tested. Which IC50 did it give?
A: 10 to 100 nM

Q: Cn1ccc2cc(Nc3nc(N[C@H](CC4CC4)C(N)=O)cnc3C(N)=O)ccc21 [Example 396, (R)-5-(1-amino-3-cyclopropyl-1-oxopropan-2-ylamino)-3-(1-methyl-1H-indol-5-ylamino)pyrazine-2-carboxamide] was tested. Which IC50 did it give?
A: 1 to 10 nM

Q: With CC(C)C[C@@H](Nc1cnc(C(N)=O)c(Nc2ccc(N(C)C)nc2)n1)C(N)=O [Example 313, (R)-5-(1-amino-4-methyl-1-oxopentan-2-ylamino)-3-(6-(dimethylamino)pyridin-3-ylamino)pyrazine-2-carboxamide] as the molecule, how does the IC50 read?
A: 10 to 100 nM

Q: With NC(=O)c1ncc(N[C@@H]2CCCC[C@@H]2N)nc1Nc1cnn2ccccc12 [Example 413, 5-(((1R,2S)-2-aminocyclohexyl)amino)-3-(pyrazolo[1,5-a]pyridin-3-ylamino)pyrazine-2-carboxamide] as the molecule, how does the IC50 read?
A: < 1 nM

Q: How did the IC50 turn out when NC(=O)c1ncc(N[C@@H]2CCCC[C@@H]2N)nc1N[C@@H]1CCc2ccccc21 [Example 38, 5-((1R,2S)-2-aminocyclohexylamino)-3-((R)-2,3-dihydro-1H-inden-1-ylamino)pyrazine-2-carboxamide] was run?
A: 100 to 1000 nM

Q: How did the IC50 turn out when CC(C)c1cc(Nc2nc(N[C@H](C)C(N)=O)cnc2C(N)=O)sn1 [Example 241, (R)-5-(1-amino-1-oxopropan-2-ylamino)-3-(3-isopropylisothiazol-5-ylamino)pyrazine-2-carboxamide] was run?
A: 1 to 10 nM

Q: How did the IC50 turn out when CC[C@@H](Nc1cnc(C(N)=O)c(Nc2ccc(C)cc2)n1)C(N)=O [Example 152, (R)-5-(1-amino-1-oxobutan-2-ylamino)-3-(p-tolylamino)pyrazine-2-carboxamide] was run?
A: 10 to 100 nM

Q: NC(=O)c1ncc(N[C@@H]2CCCC[C@@H]2N)nc1Nc1cc(-c2ncccn2)cc(-c2ncccn2)c1 [Example 423, 5-(((1R,2S)-2-aminocyclohexyl)amino)-3-((3,5-di(pyrimidin-2-yl)phenyl)amino)pyrazine-2-carboxamide] was tested. Which IC50 did it give?
A: 1 to 10 nM

Q: With COc1cc(Nc2nc(N[C@@H]3CCCC[C@@H]3N)cnc2C(N)=O)ccn1 [Example 291, 5-((1R,2S)-2-aminocyclohexylamino)-3-(2-methoxypyridin-4-ylamino)pyrazine-2-carboxamide] as the molecule, how does the IC50 read?
A: 1 to 10 nM

Q: For NC(=O)c1ncc(N[C@H](Cc2c[nH]c3ccccc23)C(N)=O)nc1Nc1ccc2ncccc2c1 [Example 388, (R)-5-(1-amino-3-(1H-indol-3-yl)-1-oxopropan-2-ylamino)-3-(quinolin-6-ylamino)pyrazine-2-carboxamide], which IC50 is on record?
A: 1 to 10 nM

Q: CC(C)[C@@H](Nc1cnc(C(N)=O)c(Nc2cnc3cc(F)ccc3c2)n1)C(N)=O [Example 203, (R)-5-(1-amino-3-methyl-1-oxobutan-2-ylamino)-3-(7-fluoroquinolin-3-ylamino)pyrazine-2-carboxamide] was tested. Which IC50 did it give?
A: 1 to 10 nM

Q: Cc1cc(Nc2nc(N[C@@H](C(N)=O)C(C)C)cnc2C(N)=O)sn1 [Example 212, (R)-5-(1-amino-3-methyl-1-oxobutan-2-ylamino)-3-(3-methylisothiazol-5-ylamino)pyrazine-2-carboxamide] was tested. Which IC50 did it give?
A: 1 to 10 nM

Q: For CC[C@@H](Nc1cnc(C(N)=O)c(Nc2cnn(C)c2)n1)C(N)=O [Example 211, (R)-5-(1-amino-1-oxobutan-2-ylamino)-3-(1-methyl-1H-pyrazol-4-ylamino)pyrazine-2-carboxamide], which IC50 is on record?
A: 100 to 1000 nM

Q: How did the IC50 turn out when COc1cc(Nc2nc(N[C@@H]3CCCC(F)(F)[C@@H]3N)cnc2C(N)=O)ccn1 [Example 331, 5-((1R,2R)-2-amino-3,3-difluorocyclohexylamino)-3-(2-methoxypyridin-4-ylamino)pyrazine-2-carboxamide] was run?
A: 10 to 100 nM

Q: With NC(=O)c1ncc(N[C@H](Cc2cccs2)C(N)=O)nc1Nc1ccc2ncccc2c1 [Example 32, (R)-5-(1-amino-1-oxo-3-(thiophen-2-yl)propan-2-ylamino)-3-(quinolin-6-ylamino)pyrazine-2-carboxamide] as the molecule, how does the IC50 read?
A: < 1 nM

Q: With NC(=O)c1ncc(N[C@H](CC(F)(F)F)C(N)=O)nc1Nc1cnc2cccnc2c1 [Example 126, (R)-3-((1,5-naphthyridin-3-yl)amino)-5-((1-amino-4,4,4-trifluoro-1-oxobutan-2-yl)amino)pyrazine-2-carboxamide] as the molecule, how does the IC50 read?
A: 1 to 10 nM
